The source of these data is patent publication US20210198201A1, “Orally Active Melanocortin Receptor-4 Compounds” (Palatin Technologies, Inc., priority 2018, published 2021).

Experiment [1] has as its target T1, MC4r (Homo sapiens, UniProt P32245). Briefly: Competitive inhibition binding assay, MC4r. The arrangement: expressed in transfected cells; host or cells: HEK-293 (membrane homogenates). The following applies: binding studies. How it is done: (§1) A competitive inhibition binding assay is performed using membrane homogenates prepared from HEK-293 cells that express recombinant hMC1ra, hMC4r, hMC3r, or hMC5r, and from B16-F10 mouse melanoma cells (containing endogenous MC1r). In the examples that follow, all values are for human recombinant receptors unless otherwise noted. Assays are performed in 96 well GF/B Millipore multiscreen filtration plates (MAFB NOB10) pre-coated with 0.5% bovine serum albumin (Fraction V). […] After incubation for 60 to 90 minutes at 37° C., the assay mixture is filtered and the membranes washed three times with ice-cold buffer. Filters are dried and counted in a gamma counter for bound radioactivity.
(§2) Maximal specific binding (100%) is defined as the difference in radioactivity (cpm) bound to cell membranes in the absence and presence of 1 μM NDP-α-MSH. […] Each assay is conducted in duplicate or triplicate and the actual mean values are described, with results less than 0% reported as 0%. Ki values for test compounds are determined using Graph-Pad Prism® curve-fitting software.
Competitive Binding Assay Using Eu-NDP-α-MSH. Alternatively, a competitive inhibition binding assay is performed employing Eu-NDP-α-MSH (PerkinElmer Life Sciences catalog No. AD0225) with determination by time-resolved fluorometry (TRF) of the lanthanide chelate. […] After incubation for 90 minutes at 37° C., the reaction was stopped by filtration over Acro Well 96-well filter plates (Pall Life Sciences). The filter plates were washed 4 times with 200 μL of ice-cold phosphate-buffered saline. DELFIA Enhancement solution (PerkinElmer Life Sciences) was added to each well. The plates were incubated on a shaker for 15 minutes and read at 340 nm excitation and 615 nm emission wavelengths. Each assay was conducted in duplicate and mean values were utilized. Ki values were determined by curve-fitting with Graph-Pad Prism® software using a one-site fixed-slope competition binding model.

In experiment [2] the target is T2, MC1r (Homo sapiens, UniProt Q01726).
T2 construct: expressed in transfected cells; host or cells: HEK-293 (membrane homogenates)
Nature of the experiment: Competitive inhibition binding assay, MC1r. The note with it: binding studies. How it is done: as §1, §2

The target in experiment [3] is T1, MC4r. Nature of the experiment: cAMP functional study in human MC4r expression system approximating maximal physiologic receptor densities. Type of experiment: cell-based. The arrangement: host or cells: TREx-293. The following applies: low receptor density human MC4r system; read-out: relative efficacy, compared to NDP-α-MSH. How it is done:
Assay for Agonist Activity. Accumulation of intracellular cAMP was examined as a measure of the ability of the peptides of the present invention to elicit a functional response in HEK-293 cells that express MC4-R. Confluent HEK-293 cells that express recombinant hMC4-R were detached from culture plates by incubation in enzyme-free cell dissociation buffer. Dispersed cells were suspended in Hanks' Balanced Salt Solution containing 10 mM HEPES (pH 7.5), 1 mM MgCl2, 1 mM glutamine, 0.5% albumin and 0.3 mM 3-isobutyl-1-methyl-xanthine (IBMX), a phosphodiesterase inhibitor. The cells were plated in 96-well plates at a density of 0.5×10^5 cells per well and pre-incubated for 10 minutes. Cells were exposed for 15 minutes at 37° C. to peptides of the present invention dissolved in DMSO (final DMSO concentration of 1%) at a concentration range of 0.05-5000 nM in a total assay volume of 200 μL. NDP-α-MSH was used as the reference agonist. cAMP levels were determined by an HTRF® cAMP cell-based assay system from Cisbio Bioassays utilizing cryptate-labeled anti-cAMP and d2-labeled cAMP, with plates read on a Perkin-Elmer Victor plate reader at […]. Data analysis was performed by nonlinear regression analysis with Graph-Pad Prism® software. The maximum efficacies of the test peptides of the present invention were compared to that achieved by the reference melanocortin agonist NDP-αMSH.
Low Receptor Density Systems. In functional studies preferably a human MC4r expression system approximating maximal human physiologic receptor densities is employed. In one aspect, a tetracycline-regulated mammalian expression system that uses regulatory elements from the E. coli Tn10-encoded tetracycline (Tet) resistance operon was employed (T-REx™ System, Invitrogen). By use of the T-REx™ System, expression of the gene of interest, the human MC4-R gene, was repressed in the absence of tetracycline or doxycycline and induced in the presence of tetracycline or doxycycline, with receptor density being dependent on the concentration of tetracycline or doxycycline. See generally Yao F. et al: Tetracycline repressor, tetR, rather than the tetR-mammalian cell transcription factor fusion derivatives, regulates inducible gene expression in mammalian cells. Hum. Gene Ther. 9:1939-1950 (1998), incorporated here by reference. Regulation was based on the binding of tetracycline or doxycycline, a derivative of tetracycline, to the Tet repressor and derepression of the promoter controlling expression of the human MC4-R gene. In general tetracycline or related regulators, such as tetracycline-derivatives, may be used to induce the gene expression. An inducible expression plasmid for expression of human MC4-R gene under the control of the strong human cytomegalovirus immediate-early (CMV) promoter and two tetracycline operator 2 (TetO2) sites was employed, together with a regulatory plasmid, pcDNA6/TR, which encodes the Tet repressor (TetR) under the control of the human SV40 promoter. Thus, expression of the human MC4-R gene from the inducible expression vector was controlled by the strong CMV promoter into which 2 copies of the tet operator 2 (TetO2) sequence had been inserted in tandem. The TetO2 sequences consisted of 2 copies of 19-nucleotide sequence separated by a 2 base pair spacer. Each 19 nucleotide TetO2 sequence served as the binding site for 2 molecules of the Tet repressor. The expression vector pcDNA4/TO/MC4R was introduced into TREx-293 (Invitrogen, R710-07), a cell line stably expressing the tetracycline repressor pcDNA6/TR using lipofectamin 2000 reagent (Invitrogen, 11668-019). Alternatively, both the expression vector and repressor are introduced into host cells by standard transformation or transfection methods.

T1 sequence (P32245 whole entry): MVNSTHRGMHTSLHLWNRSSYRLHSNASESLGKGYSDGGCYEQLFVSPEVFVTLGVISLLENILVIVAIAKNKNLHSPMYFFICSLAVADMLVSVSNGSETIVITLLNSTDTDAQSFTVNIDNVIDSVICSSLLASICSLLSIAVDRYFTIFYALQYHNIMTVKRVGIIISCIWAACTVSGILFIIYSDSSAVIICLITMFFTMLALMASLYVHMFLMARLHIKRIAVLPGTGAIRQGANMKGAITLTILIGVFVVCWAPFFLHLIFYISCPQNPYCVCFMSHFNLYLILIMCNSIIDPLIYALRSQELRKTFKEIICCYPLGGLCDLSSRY
T2 sequence (Q01726 whole entry): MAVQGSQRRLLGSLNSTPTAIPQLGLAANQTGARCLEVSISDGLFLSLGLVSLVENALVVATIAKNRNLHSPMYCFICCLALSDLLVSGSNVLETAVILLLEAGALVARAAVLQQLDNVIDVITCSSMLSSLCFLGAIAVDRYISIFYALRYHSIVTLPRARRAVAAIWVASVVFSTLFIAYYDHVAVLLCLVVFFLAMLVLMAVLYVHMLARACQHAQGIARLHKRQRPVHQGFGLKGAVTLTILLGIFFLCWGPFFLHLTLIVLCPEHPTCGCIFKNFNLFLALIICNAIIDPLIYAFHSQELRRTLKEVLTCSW

Take `CC(=O)N1CCC(N(CC(C)C)N2CCN(C(=O)[C@@H](Cc3ccc(Cl)cc3)NC(=O)C3(N)CC3)CC2)CC1` [Compound 7.2, N-[(1R)-2-[4-[(1-acetyl-4-piperidyl)-isobutyl-amino]piperazin-1-yl]-1-[(4-chlorophenyl)methyl]-2-oxo-ethyl]-1-amino-cyclopropanecarboxamide]: the Ki was 5 nM in experiment [1] and 40 nM in experiment [2]. In addition, in experiment [3], the Emax amounted to 3%.

Usually Ki stands for the equilibrium dissociation constant of an inhibitor or competing ligand from its target. Higher therefore signals lower affinity.
